Experimental data taken from patent US11986493B2 (University of Pittsburgh—Of the Commonwealth System of …, priority 2013, dated 2024).

How the values were obtained:
[1] = system: subjects with pulmonary hypertension; assay: Oxygen saturation by pulse oximeter and methemoglobin by continuous percutaneous co-oximetry; assay type: in vivo, human; design: Syst O2sat: unit not given here
Method: Oxygen saturation measured by pulse oximeter and methemoglobin levels monitored by continuous percutaneous co-oximetry prior to dose administration and through 4 hours post-dose were monitored closely.

[2] = system: subjects with pulmonary hypertension (WHO group I PAH, WHO group III PH); assay: Right heart catheterization: right heart/pulmonary artery hemodynamics, thermodilution cardiac output, PVR and SVR after inhaled NO and nebulized nitrite; assay type: in vivo, human
Method: A total of 6 subjects with a confirmed diagnosis of pulmonary hypertension and meeting all inclusion/exclusion criteria were enrolled in the study which entailed a single right heart catheterization. The study population consisted of subjects with WHO group I PAH (n=3) and subjects with WHO group III PH (n=3) which received the dose escalation paradigm:
(§1) During the study right heart/pulmonary artery hemodynamics were measured as well as noninvasive systemic blood pressure monitoring and simultaneous RV echocardiography. Subjects were tested for the changes in pulmonary vascular resistance (PVR) measured by right heart catheterization and using thermodilution cardiac output measurement at time zero, at times 15, 30 and 45 minutes after completion of each nebulization dose.
Following right heart catheterization, the patient was stabilized for 20 minutes. Baseline blood collections and hemodynamic measurements were performed, followed by treatment with 40 ppm inhaled NO gas for […] with repeat hemodynamic measurements performed.
After stopping inhaled NO gas, a single dose of sildenafil was given if patients were on background sildenafil therapy at previously prescribed doses. 45-minutes after sildenafil dose baseline hemodynamics were performed.
Subjects were monitored carefully during and after the study treatment.
The study was conducted at the 3rd FL Catheterization Laboratory at Presbyterian Hospital of the University of Pittsburgh Medical Center (UPMC). Baseline vasoreactivity was recorded after Inhaled NO at 40 ppm for […]. […] Subjects were instructed to breathe as calmly, and deeply as possible until no more mist was formed in the nebulizer chamber. Subjects were also instructed to hold their breath for approximately 10 seconds after inhalation to allow the study drug to reach deep into the lungs.

[3] = system: subjects with pulmonary hypertension; assay: Systemic blood pressure (noninvasive) and heart rate monitoring during the study
Method: as §1
Subjects were monitored closely for changes in blood pressure during the study. […] Subjects were continued to be monitored closely every 10 minutes for 2 hours.

[4] = 40 ppm inhaled NO, some patients (non-responsive to inhaled NO)

nitric oxide [iNO, reference compound]
Syst O2sat ([1]; Patient 1, 40 ppm inhaled NO): 100
Syst O2sat ([1]; Patient 2, 40 ppm inhaled NO): 100
Syst O2sat ([1]; Patient 3, 40 ppm inhaled NO): 99
Syst O2sat ([1]; Patient 4, 40 ppm inhaled NO): 100
Syst O2sat ([1]; Patient 5, 40 ppm inhaled NO): 100
Syst O2sat ([1]; Patient 6, iNO): 100
reduction in PCWP from baseline [2, 4]: did not show a meaningful reduction
reduction in RA from baseline [2, 4]: did not show a meaningful reduction
CI ([2]; Patient 1, 40 ppm inhaled NO): 2.54
CO ([2]; Patient 1, 40 ppm inhaled NO): 4.91
PA sat ([2]; Patient 1, 40 ppm inhaled NO): 68
PAD ([2]; Patient 1, 40 ppm inhaled NO): 25
PAS ([2]; Patient 1, 40 ppm inhaled NO): 73
PCWP ([2]; Patient 1, 40 ppm inhaled NO): 14
PVR ([2]; Patient 1, 40 ppm inhaled NO): 5.50
PVR/SVR ([2]; Patient 1, 40 ppm inhaled NO): 0.40
RA ([2]; Patient 1, 40 ppm inhaled NO): 12
SVR ([2]; Patient 1, 40 ppm inhaled NO): 13.78
TPR ([2]; Patient 1, 40 ppm inhaled NO): 8.35
mPAP ([2]; Patient 1, 40 ppm inhaled NO): 41.01
CI ([2]; Patient 2, 40 ppm inhaled NO): 3.47
CO ([2]; Patient 2, 40 ppm inhaled NO): 6.7
PA sat ([2]; Patient 2, 40 ppm inhaled NO): 68
PAD ([2]; Patient 2, 40 ppm inhaled NO): 13
PAS ([2]; Patient 2, 40 ppm inhaled NO): 45
PCWP ([2]; Patient 2, 40 ppm inhaled NO): 10
PVR ([2]; Patient 2, 40 ppm inhaled NO): 2.04
PVR/SVR ([2]; Patient 2, 40 ppm inhaled NO): 0.17
RA ([2]; Patient 2, 40 ppm inhaled NO): 7
SVR ([2]; Patient 2, 40 ppm inhaled NO): 11.99
TPR ([2]; Patient 2, 40 ppm inhaled NO): 3.53
mPAP ([2]; Patient 2, 40 ppm inhaled NO): 23.67
CI ([2]; Patient 3, 40 ppm inhaled NO): 3.14
CO ([2]; Patient 3, 40 ppm inhaled NO): 6.53
PAD ([2]; Patient 3, 40 ppm inhaled NO): 20
PAS ([2]; Patient 3, 40 ppm inhaled NO): 69
PCWP ([2]; Patient 3, 40 ppm inhaled NO): 14
PVR ([2]; Patient 3, 40 ppm inhaled NO): 3.42
PVR/SVR ([2]; Patient 3, 40 ppm inhaled NO): 0.35
RA ([2]; Patient 3, 40 ppm inhaled NO): 11
SVR ([2]; Patient 3, 40 ppm inhaled NO): 9.65
TPR ([2]; Patient 3, 40 ppm inhaled NO): 5.56
mPAP ([2]; Patient 3, 40 ppm inhaled NO): 36.34
CI ([2]; Patient 4, 40 ppm inhaled NO): 2.98
CO ([2]; Patient 4, 40 ppm inhaled NO): 5.21
PAD ([2]; Patient 4, 40 ppm inhaled NO): 21
PAS ([2]; Patient 4, 40 ppm inhaled NO): 63
PCWP ([2]; Patient 4, 40 ppm inhaled NO): 7
PVR ([2]; Patient 4, 40 ppm inhaled NO): 5.38
PVR/SVR ([2]; Patient 4, 40 ppm inhaled NO): 0.29
RA ([2]; Patient 4, 40 ppm inhaled NO): 3
SVR ([2]; Patient 4, 40 ppm inhaled NO): 18.30
TPR ([2]; Patient 4, 40 ppm inhaled NO): 6.72
mPAP ([2]; Patient 4, 40 ppm inhaled NO): 35.00
CI ([2]; Patient 5, 40 ppm inhaled NO): 2.85
CO ([2]; Patient 5, 40 ppm inhaled NO): 5.05
PAD ([2]; Patient 5, 40 ppm inhaled NO): 17
PAS ([2]; Patient 5, 40 ppm inhaled NO): 64
PCWP ([2]; Patient 5, 40 ppm inhaled NO): 14
PVR ([2]; Patient 5, 40 ppm inhaled NO): 3.70
PVR/SVR ([2]; Patient 5, 40 ppm inhaled NO): 0.30
RA ([2]; Patient 5, 40 ppm inhaled NO): 5
RVD ([2]; Patient 5, 40 ppm inhaled NO): 5
RVS ([2]; Patient 5, 40 ppm inhaled NO): 66
SVR ([2]; Patient 5, 40 ppm inhaled NO): 12.15
TPR ([2]; Patient 5, 40 ppm inhaled NO): 6.47
mPAP ([2]; Patient 5, 40 ppm inhaled NO): 32.67
CI ([2]; Patient 6, iNO): 3.1658
CO ([2]; Patient 6, iNO): 6.3
PAD ([2]; Patient 6, iNO): 27
PAS ([2]; Patient 6, iNO): 58
PCWP ([2]; Patient 6, iNO): 13
PVR ([2]; Patient 6, iNO): 4.3924
PVR/SVR ([2]; Patient 6, iNO): 0.3132
RA ([2]; Patient 6, iNO): 12
RVD ([2]; Patient 6, iNO): 12
RVS ([2]; Patient 6, iNO): 58
SVR ([2]; Patient 6, iNO): 14.023
TPR ([2]; Patient 6, iNO): 6.4559
mPAP ([2]; Patient 6, iNO): 40.672
PCWP compared to baseline ([2]; after inhalation of NO, in some instances): increased
HR ([3]; Patient 1, 40 ppm inhaled NO): 84
Systemic DBP ([3]; Patient 1, 40 ppm inhaled NO): 66
Systemic SBP ([3]; Patient 1, 40 ppm inhaled NO): 107
Systemic mBP ([3]; Patient 1, 40 ppm inhaled NO): 79.68
HR ([3]; Patient 2, 40 ppm inhaled NO): 71
Systemic DBP ([3]; Patient 2, 40 ppm inhaled NO): 69
Systemic SBP ([3]; Patient 2, 40 ppm inhaled NO): 124
Systemic mBP ([3]; Patient 2, 40 ppm inhaled NO): 87.34
HR ([3]; Patient 3, 40 ppm inhaled NO): 75
Systemic DBP ([3]; Patient 3, 40 ppm inhaled NO): 57
Systemic SBP ([3]; Patient 3, 40 ppm inhaled NO): 108
Systemic mBP ([3]; Patient 3, 40 ppm inhaled NO): 74.01
HR ([3]; Patient 4, 40 ppm inhaled NO): 66
Systemic DBP ([3]; Patient 4, 40 ppm inhaled NO): 76
Systemic SBP ([3]; Patient 4, 40 ppm inhaled NO): 143
Systemic mBP ([3]; Patient 4, 40 ppm inhaled NO): 98.35
HR ([3]; Patient 5, 40 ppm inhaled NO): 56
Systemic DBP ([3]; Patient 5, 40 ppm inhaled NO): 51
Systemic SBP ([3]; Patient 5, 40 ppm inhaled NO): 97
Systemic mBP ([3]; Patient 5, 40 ppm inhaled NO): 65.34
HR ([3]; Patient 6, iNO): 100
Systemic DBP ([3]; Patient 6, iNO): 77
Systemic SBP ([3]; Patient 6, iNO): 147
Systemic mBP ([3]; Patient 6, iNO): 100.346
